Test results published in US9856480B2, “Dnazyme for silencing the expression of EGFR” (DCB-USA LLC, priority 2013, dated 2018).
Strand notation (5' to 3'): a small letter for the sugar, then the base; units joined by * are phosphorothioate-linked, units joined directly phosphodiester-linked; [ ] holds rarer units or linkages, { } end groups; capitals alone tell only the bases. d = 2'-deoxy (DNA)

Key:
T790M EGFR mRNA [1] = assay: Quantitative real-time PCR of EGFR mRNA knockdown; type: cell-based, human; conditions: for T790M EGFR mRNA expression knocked down (quantitative real-time PCR): 100 nM, 48 h
Procedure: (§1) A549, CL1-5, H1975, or CL97 was seeded onto 6-well at 3×10^5 cells/well and cultured overnight. Then, cells were separately treated with 100 nM DzControl or DzT790M-1 with lipofectamine 2000 (Invitrogen). After 48 h, total mRNA were extracted from DNAzyme-treated cells by Mestrisol following manufacturer's protocol. cDNA were synthesized by using RT III kit with random hexamers as primers (Invitrogen). The PCR primers were synthesized by Genomics BioSci & Tech (Taipei, Taiwan). The sequences of PCR primers are listed as follows: […]
(§2) The parameters for PCR were: 95° C. for 10 min, then 25 cycles of PCR at 95° C. for 30 s, 60° C. for 30 s, and 72° C. for 60 s. 3% agarose gels were used for electrophoresis of PCR products. The intensity of bands were quantified by Image J. Quantitative RT-PCR was performed on 40 ng total mRNA with the LightCycler 480 system (Roche). The PCR mix contained 5 μl of 2× Probe Master mix, 100 nM of UPL probe (Roche Diagnostics, Penzberg, Germany), 200 nM of forward primer and reverse primer, 0.1 ul RNAseout (Invitrogen), and 0.025 ul RTIII enzyme (Invitrogen) in a total volume of 10 μl. PCR parameters were as follows: 50° C. for 40 min, then 45 cycles of PCR at 95° C. for 10 s, 60° C. for 10 s, and 72° C. for 2 s. Data were analyzed by LC480 software (Roche Diagnostics, Penzberg, Germany). The relative amount of EGFR mRNA was normalized to ACTB mRNA. The sequences of PCR primers are as follows: […]
(§3) To examine the allele selectivity of DzT790M-1, EGFR mRNA knockdown efficiency was detected in two cell lines harboring wild-type EGFR (A549, CL1-5) and two cell lines containing EGFR T790M mutation (H1975, CL97). A549, CL1-5, H1975, or CL97 was seeded onto 6-well at 3×10^5 cells/well and cultured overnight. Then, cells were separately treated with 100 nM DzControl or DzT790M-1 with lipofectamine 2000 (Invitrogen). After 48 h, total mRNA was extracted. […] DzT790M-1 knocked down 68.2% and 77.4% T790M EGFR mRNA expression in H1975 and CL97 cells respectively. In contrast, in A549 and CL1-5 cells, only 1.1% and 19.2% wild-type EGFR mRNA expression was affected.

EGFR T790M [2] = target: EGFR T790M (Homo sapiens, UniProt P00533, L858R/T790M); assay: Western immunoblotting of EGFR expression and downstream signaling in EGFR T790M mutant cell lines; conditions: H1975^TM/LR; 100 nM; 72 h; 100 ng/ml EGF 15 min
Procedure: (§5) Cells were harvested 72 h after transfecting with 100 nM DzC or DzT. 100 ng/ml EGF were added into culture medium 15 min before cell lysates were harvested. Cell lysates were analyzed by immunoblotting with indicated primary antibodies.
(§6) Cells were harvested 72 h after transfecting with 100 nM cDzC or cDzT. 100 ng/ml EGF were added into culture medium 15 min before cell lysates were harvested. Cell lysates were analyzed by immunoblotting with indicated primary antibodies.
(§7) A549, CL1-5, H1975, or CL97 was seeded onto 6-well at 3×10^5 cells/well and cultured overnight. […] The transfected A549 and CL1-5 cells were serum-starved for 24 h and treated with 100 ng/ml of EGF at 37° C. for 15 min. 72 h after transfection, cell were collected for analysis. Cells were washed twice by ice-cold PBS and then total protein was extracted by RIPA buffer with protease inhibitor (Roche). 50 μg of total protein from the supernatants were boiled for 5 min at 95° C. The samples were resolved on 10% SDS-PAGE gel and transferred onto nitrocellulose membranes. […] Secondary antibodies against rabbit IgG or mouse IgG was used at 1:5000 dilution. Protein bands on membrane were visualized by exposure to the chemiluminescence substrate.
(§8) To examine the effects of DzT790M on protein expression level of EGFR and its downstream signaling, western immunoblotting was performed on DzT790M transfected cells. A549, CL1-5, H1975, or CL97 was seeded onto 6-well at 3×10^5 cells/well and cultured overnight. […] The transfected A549 and CL1-5 cells were serum-starved for 24 h and treated with 100 ng/ml of EGF at 37° C. for 15 min. 72 h after transfection, cell were collected for analysis. Cells were washed twice by ice-cold PBS and then total protein was extracted by RIPA buffer with protease inhibitor (Roche).
(§9) The transfected CL1-5 cells were serum-starved for 24 h and treated with 100 ng/ml of EGF at 37° C. for 15 min. 72 h after transfection, cells were collected for western blotting analysis following the above mentioned procedure. Expression of EGFR and downstream signaling were examined by primary antibodies against human pEGFR (Y1068), tEGFR, pSTAT3 (Y705), tSTAT3, pAKT (S473), tAKT, pERK (T202/Y204), and tERK at 1:1000 dilution and β-actin at 1:10000 dilution, respectively.
(§10) H1975 was seeded onto 6-well at 3×10^5 cells/well and cultured overnight. […] 72 h after transfection, cells were collected for western blotting analysis following the above mentioned procedure. Expression of EGFR and downstream signaling were examined by primary antibodies against human pEGFR(Y1068), tEGFR, pSTAT3 (Y705), tSTAT3, pAKT (S473), tAKT, pERK (T202/Y204), and tERK at 1:1000 dilution and β-actin at 1:10000 dilution, respectively.
(§11) H1975^TM/LR and CL97^TM/GA cells were harvested 72 h after transfecting with DzC or DzT. […]

EGFR T790M [3] = assay: as above; conditions: 100 nM
Procedure: as §5, §6, §7, §8, §9, §10, §11

H1975 cells (EGFR T790M) = assay: Cell viability assay (MTT); type: cell-based, human; conditions: 100 nM by lipofectamine transfection, 72 h
CL97 cells = assay: Apoptosis assay (annexin V and PI, flow cytometry); type: cell-based, human; conditions: 100 nM, 48 h
Procedure: (§4) H1975 or CL97 was seeded onto 10-cm dish and cultured overnight. Then, cells were separately treated with 100 nM DzControl or DzT790M-1 with lipofectamine 2000 (Invitrogen). After 48 h, cells were collected, double stained by annexin V and PI, and analyzed by flow cytometry following the protocol of Dead cell apoptosis kit from manufacturer (Invitrogen).

H1975 cells = assay: Apoptosis assay (annexin V and PI, flow cytometry); type: cell-based, human; conditions: 100 nM, 48 h
Procedure: as §4

T790M EGFR mRNA [4] = assay: Real-time PCR of EGFR mRNA knockdown; type: cell-based, human; conditions: 100 nM with lipofectamine 2000, 48 h
Procedure: as §1, §2, §3

wild-type EGFR mRNA = assay: Real-time PCR of EGFR mRNA knockdown; type: cell-based, human; conditions: 100 nM with lipofectamine 2000, 48 h
Procedure: as §1, §2, §3

## DzT790M-1: 10-23 DNAzyme against EGFR T790M mRNA, arms 10/4, phosphorothioate ends: AGCTGCATGAGGCTAGCTACAACGAGAGC (DNA dA*dGdCdTdGdCdAdTdGdAdGdGdCdTdAdGdCdTdAdCdAdAdCdGdAdGdAdG*dC; further chemistry not fully specified)
T790M EGFR mRNA [1]; CL97 cells
  T790M EGFR mRNA expression knocked down (quantitative real-time PCR): 77.4%
T790M EGFR mRNA [1]; H1975 cells
  T790M EGFR mRNA expression knocked down (quantitative real-time PCR): 68.2%
T790M EGFR mRNA [1]; quantitative real-time PCR, H1975, CL97 vs A549, CL1-5
  increased knockdown efficiency toward T790M EGFR mRNA over wild-type counterpart: at least 3.5 fold
EGFR T790M [2]
  EGFR protein expression and downstream signaling including EGFR, STAT3, and ERK after EGF treatment: remained its suppression effect
EGFR T790M [3]; H1975 and CL97 cells, 72 h, ERK not in H1975 cells
  phosphorylation of EGFR Y1068, STAT3 Y705, AKT S473 and ERK T202/Y204: decreased phosphorylation
EGFR T790M [3]; H1975 and CL97 cells, 72 h after transfection
  EGFR protein expression: significantly silenced
EGFR T790M [3]; T790M mutant cells, 72 h, 100 ng/ml EGF 15 min
  EGFR T790M expression and downstream signaling after EGF treatment: remains its suppression effect
H1975 cells (EGFR T790M)
  anti-proliferation effect: 50%
CL97 cells
  percentage of apoptotic cells in whole cell population: 27.4%
  percentage of dead cells in whole cell population: 25.1%
H1975 cells
  apoptotic cells: 18.6%
  dead cells (annexin V and PI double positive): 32.6%
T790M EGFR mRNA [4]; CL97 cells
  remained EGFR mRNA expression (real-time PCR): 54%
T790M EGFR mRNA [4]; H1975 cells
  remained EGFR mRNA expression (real-time PCR): 32%
wild-type EGFR mRNA; A549 cells
  remained EGFR mRNA expression (real-time PCR): 121%
wild-type EGFR mRNA; CL1-5 cells
  remained EGFR mRNA expression (real-time PCR): 95%
